# Data: ChEMBL document CHEMBL1138674, “Validation of automated docking programs for docking and database screening against RNA drug targets” (J Med Chem, 2004)
# Test: Dissociation constant of the compound
# Type: physicochemical
row,Molecule,Kd
1,N=C(N)NCCC[C@H](N)C(=O)O (stereo in doubt; form 1) [ARGININE],60 µM
2,NC[C@@H]1O[C@H](O[C@H]2[C@@H](O)[C@H](O[C@@H]3[C@@H](O)[C@H](N)C[C@H](N)[C@H]3O[C@H]3O[C@H](CN)[C@@H](O)[C@H](O)[C@H]3N)O[C@@H]2CO)[C@H](N)[C@@H](O)[C@@H]1O (stereo in doubt; form 1) [FRAMYCETIN],1 µM
3,N=C(N)NCCC[C@H](N)C(=O)O (stereo in doubt; form 2) [ARGININE],1000 µM
4,NC[C@@H]1O[C@H](O[C@H]2[C@@H](O)[C@H](O[C@@H]3[C@@H](O)[C@H](N)C[C@H](N)[C@H]3O[C@H]3O[C@H](CN)[C@@H](O)[C@H](O)[C@H]3N)O[C@@H]2CO)[C@H](N)[C@@H](O)[C@@H]1O (stereo in doubt; form 2) [FRAMYCETIN],0.1 µM
5,CC(=O)c1ccc2c(c1)N(CCCN(C)C)c1ccccc1S2 [ACEPROMAZINE],0.1 µM
6,Nc1ncnc2c1ncn2[C@@H]1O[C@H](COP(=O)(O)O)[C@@H](O)[C@H]1O [ADENOSINE PHOSPHATE],2.7 µM
7,O=C(O)CCCC[C@@H]1SC[C@@H]2NC(=O)N[C@@H]21 [BIOTIN],6 µM
8,NC(=O)NCCC[C@H](N)C(=O)O [L-CITRULLINE],68 µM
9,NC[C@H]1O[C@H](O[C@H]2[C@H](O)[C@@H](O)[C@H](N)C[C@@H]2N)[C@H](N)[C@@H](O)[C@@H]1O [NEAMINE],1 µM
10,NC[C@@H]1O[C@H](O[C@H]2[C@@H](O)[C@H](O[C@@H]3[C@@H](O)[C@H](N)C[C@H](N)[C@H]3O[C@H]3O[C@H](CO)[C@@H](O)[C@H](O)[C@H]3N)O[C@@H]2CO)[C@H](N)[C@@H](O)[C@@H]1O [PAROMOMYCIN],0.2 µM
11,Cc1cc2nc3c(=O)[nH]c(=O)nc-3n(C[C@H](O)[C@H](O)[C@H](O)COP(=O)(O)O)c2cc1C [RIBOFLAVIN 5'-PHOSPHATE],0.5 µM
12,Cn1c(=O)c2[nH]cnc2n(C)c1=O [THEOPHYLLINE],0.4 µM
13,NC[C@H]1O[C@H](O[C@H]2[C@H](O)[C@@H](O[C@H]3O[C@H](CO)[C@@H](O)[C@H](N)[C@H]3O)[C@H](N)C[C@@H]2N)[C@H](N)C[C@@H]1O [TOBRAMYCIN],0.0009 µM
14,GENTAMICIN,0.01 µM
